The source of these data is patent US7608619B2, “Substituted oxazole compounds with analgesic activity” (Gruenenthal GmbH, priority 2005, dated 2009).

In the test the target is T1, human μ-opiate receptor (Homo sapiens, UniProt P35372).
T1 construct: purchased Nen company, Zaventem, Belgium RB-HOM; host or cells: CHO-K1 cells (membrane preparation)
T1 sequence (P35372 whole entry): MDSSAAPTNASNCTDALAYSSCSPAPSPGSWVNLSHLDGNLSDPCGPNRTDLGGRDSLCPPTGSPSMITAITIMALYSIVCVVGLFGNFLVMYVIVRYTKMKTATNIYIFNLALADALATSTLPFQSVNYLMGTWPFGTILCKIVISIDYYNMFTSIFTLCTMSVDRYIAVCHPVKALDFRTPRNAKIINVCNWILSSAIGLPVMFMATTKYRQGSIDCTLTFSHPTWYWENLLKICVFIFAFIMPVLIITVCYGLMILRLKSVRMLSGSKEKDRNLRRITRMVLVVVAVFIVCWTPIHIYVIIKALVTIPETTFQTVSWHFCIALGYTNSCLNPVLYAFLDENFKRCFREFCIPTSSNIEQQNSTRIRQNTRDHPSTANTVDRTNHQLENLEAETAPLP
Description: Affinity for the human μ-opiate receptor ([3H]-naloxone displacement, SPA, CHO-K1 membrane preparation). As to conditions: test substance 1 μmole/l; displacement of 1 nmole/l [3H]-naloxone; percentage inhibition of the specific binding; read-out: μ-opioid receptor, % inhibition [1 μM]. The gist of the method: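 [3H]-naloxone (1 nmol/l) displacement by SPA with WGA beads, using membranes of CHO-K1 cells expressing the receptor, in 50 mmol/l Tris-HCl with 0.05% azide and 0.06% BSA; 90 min at room temperature. Non-specific binding defined with 25 μmol/l naloxone. Value is % inhibition of specific binding at 1 μmol/l test compound.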
The inhibition is the share of the control response that was lost under treatment. For `CCN(CC)C(CC1CCC(C(c2cccs2)N(C)C)CC1)c1nc(Cc2ccccc2)c(N2CCN(Cc3ccccc3)CC2)o1` (centres unmarked) [compound 78, {1-[4-benzyl-5-(4-benzyl-piperazin-1-yl)-oxazol-2-yl]-2-[4-(dimethylamino-thiophen-2-yl-methyl)-cyclohexyl]-ethyl}-diethylamine], the inhibition at 1 µM was 100%.
Then `CCN(CC)C(c1nc(Cc2ccccc2)c(N2CC(C)CC(C)C2)o1)C1CCC(C(c2ccc(Cl)cc2)N(C)C)CC1` (centres unmarked) [compound 41, ([4-benzyl-5-(3,5-dimethylpiperidin-1-yl)-oxazol-2-yl]-{4-[(4-chlorophenyl)-dimethylaminomethyl]-cyclohexyl}-methyl)-diethylamine], with 64%; and `CCN(CC)C(CC1CCC(C(c2ccc(F)cc2)N(C)C)CC1)c1nc(Cc2ccccc2)c(N(C)CCc2ccccc2)o1` (centres unmarked) [compound 97, [4-benzyl-2-(1-diethylamino-2-{4-[dimethylamino-(4-fluorophenyl)-methyl]-cyclohexyl}-ethyl)-oxazol-5-yl]-methylphenethylamine], with 85%; and `CC1CN(c2oc(C(CC3CCC(C(c4cccs4)N(C)C)CC3)N3CCOCC3)nc2Cc2ccccc2)CC(C)O1` (centres unmarked) [compound 160, [(4-{2-[4-benzyl-5-(2,6-dimethyl-morpholin-4-yl)-oxazol-2-yl]-2-morpholin-4-yl-ethyl}-cyclohexyl)-thiophen-2-yl-methyl]-dimethylamine], with 79%.
Then `CC1CCN(c2oc(C(C3CCC(C(c4cccs4)N(C)C)CC3)N3CCCCC3)nc2Cc2ccccc2)CC1` (centres unmarked) [compound 24, [(4-{[4-benzyl-5-(4-methylpiperidin-1-yl)-oxazol-2-yl]-piperidin-1-yl-methyl}-cyclohexyl)-thiophen-2-yl-methyl]-dimethylamine], with 70%.
On to `COc1ccc(N2CCN(C(c3nc(Cc4ccccc4)c(N4CCOCC4)o3)C3CCC(C(c4ccc(Cl)cc4)N(C)C)CC3)CC2)cc1` (centres unmarked) [compound 135, [(4-{(4-benzyl-5-morpholin-4-yl-oxazol-2-yl)-[4-(4-methoxyphenyl)-piperazin-1-yl]-methyl}-cyclohexyl)-(4-chlorophenyl)-methyl]-dimethylamine], for which the inhibition at 1 µM worked out at 70%.
On to `CN(C)C(c1cccs1)C1CCC(C(c2nc(Cc3ccccc3)c(N3CCSCC3)o2)N2CCCCC2)CC1` (centres unmarked) [compound 48, ({4-[(4-benzyl-5-thiomorpholin-4-yl-oxazol-2-yl)-piperidin-1-yl-methyl]-cyclohexyl}-thiophen-2-yl-methyl)-dimethylamine], for which the inhibition at 1 µM was determined as 60%.
The value for `CN(C)C(c1cccs1)C1CCC(C(c2nc(Cc3ccccc3)c(N3CCSCC3)o2)N(C)c2ccccc2)CC1` (centres unmarked) [compound 52, {(4-benzyl-5-thiomorpholin-4-yl-oxazol-2-yl)-[4-(dimethylaminothiophen-2-yl-methyl)-cyclohexyl]-methyl}-methylphenylamine] was 92%; that for `CC1CN(c2oc(C(C3CCC(C(c4cccc(F)c4)N(C)C)CC3)N3CCc4ccccc4C3)nc2Cc2ccccc2)CC(C)O1` (centres unmarked) [compound 128, [{4-[[4-benzyl-5-(2,6-dimethyl-morpholin-4-yl)-oxazol-2-yl]-(3,4-dihydro-1H-isoquinolin-2-yl)-methyl]-cyclohexyl}-(3-fluorophenyl)-methyl]-dimethylamine] was 71%; that for `CN(C)C(c1cccs1)C1CCC(CC(c2nc(Cc3ccccc3)c(N3CCOCC3)o2)N2CCOCC2)CC1` (centres unmarked) [compound 158, ({4-[2-(4-benzyl-5-morpholin-4-yl-oxazol-2-yl)-2-morpholin-4-yl-ethyl]-cyclohexyl}-thiophen-2-yl-methyl)-dimethylamine] was 83%.
With `CC1CC(C)CN(c2oc(C(C3CCC(C(c4cccs4)N(C)C)CC3)N3CCCCC3)nc2Cc2ccccc2)C1` (centres unmarked) [compound 45, [(4-{[4-benzyl-5-(3,5-dimethylpiperidin-1-yl)-oxazol-2-yl]-piperidin-1-yl-methyl}-cyclohexyl)-thiophen-2-yl-methyl]-dimethylamine], the inhibition at 1 µM turned out to be 71%.
Regarding `CCN(CC)C(CC1CCC(C(c2ccc(F)cc2)N(C)C)CC1)c1nc(Cc2ccccc2)c(N2CCC(Cc3ccccc3)CC2)o1` (centres unmarked) [compound 67, (1-[4-benzyl-5-(4-benzyl-piperidin-1-yl)-oxazol-2-yl]-2-{4-[dimethylamino-(4-fluorophenyl)-methyl]-cyclohexyl}-ethyl)-diethylamine], the inhibition at 1 µM worked out at 64%.
As for `CCN(CC)C(c1nc(Cc2ccccc2)c(N2CCC(Cc3ccccc3)CC2)o1)C1CCC(C(c2cccs2)N(C)C)CC1` (centres unmarked) [compound 27, {[4-benzyl-5-(4-benzyl-piperidin-1-yl)-oxazol-2-yl]-[4-(dimethylamino-thiophen-2-yl-methyl)-cyclohexyl]-methyl}-diethylamine], the inhibition at 1 µM was 78%.
For the molecule `CN(Cc1ccccc1)c1oc(C(CC2CCC(C(c3ccc(Cl)cc3)N(C)C)CC2)N2CCCCC2)nc1Cc1ccccc1` (centres unmarked) [compound 58, Benzyl-[4-benzyl-2-(2-{4-[(4-chlorophenyl)-dimethylaminomethyl]-cyclohexyl}-1-piperidin-1-yl-ethyl)-oxazol-5-yl]-methylamine], the inhibition at 1 µM turned out to be 73%.
Take `COc1ccc(N2CCN(C(c3nc(Cc4ccccc4)c(N4CC(C)OC(C)C4)o3)C3CCC(C(c4cccs4)N(C)C)CC3)CC2)cc1` (centres unmarked) [compound 145, [(4-{[4-benzyl-5-(2,6-dimethylmorpholin-4-yl)-oxazol-2-yl]-[4-(4-methoxy-phenyl)-piperazin-1-yl]-methyl}-cyclohexyl)-thiophen-2-yl-methyl]-dimethylamine]: the inhibition at 1 µM amounted to 69%.
Take `CCN(CC)C(c1nc(Cc2ccccc2)c(N(C)CCc2ccccc2)o1)C1CCC(C(c2cccs2)N(C)C)CC1` (centres unmarked) [compound 49, (4-benzyl-2-{diethylamino-[4-(dimethylamino-thiophen-2-yl-methyl)-cyclohexyl]-methyl}-oxazol-5-yl)-methylphenethylamine]: the inhibition at 1 µM worked out at 90%.
The value for `COc1ccc(N2CCN(c3oc(C(CC4CCC(C(c5cccc(F)c5)N(C)C)CC4)N4CCOCC4)nc3Cc3ccccc3)CC2)cc1` (centres unmarked) [compound 151, [[4-(2-{4-benzyl-5-[4-(4-methoxyphenyl)-piperazin-1-yl]-oxazol-2-yl}-2-morpholin-4-yl-ethyl)-cyclohexyl]-(3-fluorophenyl)-methyl]-dimethylamine] was 89%; that for `COc1ccc(N2CCN(c3oc(C(CC4CCC(C(c5cccc(F)c5)N(C)C)CC4)N4CCc5ccccc5C4)nc3Cc3ccccc3)CC2)cc1` (centres unmarked) [compound 157, [{4-[2-{4-benzyl-5-[4-(4-methoxy-phenyl)-piperazin-1-yl]-oxazol-2-yl}-2-(3,4-dihydro-1H-isoquinolin-2-yl)-ethyl]-cyclohexyl}-(3-fluorophenyl)-methyl]-dimethylamine] was 84%; that for `CN(C)C(c1cccs1)C1CCC(C(c2nc(Cc3ccccc3)c(N3CCSCC3)o2)N2CCN(Cc3ccccc3)CC2)CC1` (centres unmarked) [compound 55, ({4-[(4-benzylpiperazin-1-yl)-(4-benzyl-5-thiomorpholin-4-yl-oxazol-2-yl)-methyl]-cyclohexyl}-thiophen-2-yl-methyl)-dimethylamine] was 63%.
`CN(C)C(c1cccs1)C1CCC(CC(c2nc(Cc3ccccc3)c(N3CCN(Cc4ccccc4)CC3)o2)N2CCN(Cc3ccccc3)CC2)CC1` (centres unmarked) [compound 82, ({4-[2-[4-benzyl-5-(4-benzylpiperazin-1-yl)-oxazol-2-yl]-2-(4-benzyl-piperazin-1-yl)-ethyl]-cyclohexyl}-thiophen-2-yl-methyl)-dimethylamine]: the inhibition at 1 µM came out at 83%.
Then `CCN(CC)c1oc(C(CC2CCC(C(c3ccc(Cl)cc3)N(C)C)CC2)N(CC)CC)nc1Cc1ccccc1` (centres unmarked) [compound 90, [4-benzyl-2-(2-{4-[(4-chlorophenyl)-dimethylaminomethyl]-cyclohexyl}-1-diethylaminoethyl)-oxazol-5-yl]-diethylamine], with 89%; and `CCN(CC)C(CC1CCC(C(c2ccc(Cl)cc2)N(C)C)CC1)c1nc(Cc2ccccc2)c(N2CC(C)CC(C)C2)o1` (centres unmarked) [compound 88, (1-[4-benzyl-5-(3,5-dimethylpiperidin-1-yl)-oxazol-2-yl]-2-{4-[(4-chlorophenyl)-dimethylaminomethyl]-cyclohexyl}-ethyl)-diethylamine], with 79%.
Turning to `CC1CC(C)CN(c2oc(C(C3CCC(C(c4cccs4)N(C)C)CC3)N3CCN(Cc4ccccc4)CC3)nc2Cc2ccccc2)C1` (centres unmarked) [compound 53, ({4-[[4-benzyl-5-(3,5-dimethylpiperidin-1-yl)-oxazol-2-yl]-(4-benzyl-piperazin-1-yl)-methyl]-cyclohexyl}-thiophen-2-yl-methyl)-dimethylamine], the inhibition at 1 µM is 86%.
`CC1CC(C)CN(c2oc(C(CC3CCC(C(c4ccc(F)cc4)N(C)C)CC3)N(C)c3ccccc3)nc2Cc2ccccc2)C1` (centres unmarked) [compound 101, (1-[4-benzyl-5-(3,5-dimethylpiperidin-1-yl)-oxazol-2-yl]-2-{4-[dimethylamino-(4-fluorophenyl)-methyl]-cyclohexyl}-ethyl)-methylphenylamine]: the inhibition at 1 µM came out at 68%.
As for `CCN(CC)C(CC1CCC(C(c2cccs2)N(C)C)CC1)c1nc(Cc2ccccc2)c(N2CCC(C)CC2)o1` (centres unmarked) [compound 79, {1-[4-benzyl-5-(4-methylpiperidin-1-yl)-oxazol-2-yl]-2-[4-(dimethylamino-thiophen-2-yl-methyl)-cyclohexyl]-ethyl}-diethylamine], the inhibition at 1 µM is 97%.
Turning to `CN(C)C(c1ccc(Cl)cc1)C1CCC(C(c2nc(Cc3ccccc3)c(N3CCCC3)o2)N2CCc3ccccc3C2)CC1` (centres unmarked) [compound 137, [{4-[(4-benzyl-5-pyrrolidin-1-yl-oxazol-2-yl)-(3,4-dihydro-1H-isoquinolin-2-yl)-methyl]-cyclohexyl}-(4-chlorophenyl)-methyl]-dimethylamine], the inhibition at 1 µM is 85%.
